The text below walks through data of patent EP0358494B1, “Emulsifiable concentrate of a pesticide” (priority 1988, dated 1990).

Where two headings read alike, the source gives them in different places.

This series in a line: Solubility of water in the cosolvent (Table 1). The format is physicochemical. The protocol:
All of the compositions were prepared by simple mechanical agitation of the ingredients together, using a Silveron (Trade Mark) high shear mixer. The nature and water solubility of the various cosolvents employed are as noted in Table 1.

Where [1] appears, read: the cosolvent itself (neat solvent).

As for `COC(C)COC(C)CO` (centres unmarked) [Dipropylene glycol monomethyl ether], the “Solubility of water in solvent (H20/Solv)” value (“Solubility … (H20/Solv)” below) is recorded as “miscible”.

As for `CCOP(=S)(OCC)Oc1nc(Cl)c(Cl)cc1Cl` [chlorpyrifos], the “Solubility … (H20/Solv)” value is listed as “.0002% w/w”.

Regarding `CCSCc1ccccc1OC(=O)NC` [ethiofencarb], the “Solubility … (H20/Solv)” value under setting [1] stood at 0.18% w/w.

Take `COP(=S)(OC)Oc1ccc([N+](=O)[O-])c(C)c1` [fenitrothion]: the “Solubility … (H20/Solv)” value under setting [1] is reported as 0.0014% w/w.

Take xylene: the “Solubility … (H20/Solv)” value was found to be 0.87% w/w.
